Where “and” joins values, the source holds several entries; their conditions need not be identical. Equal entries are not always repeated.
Assays:
[1] = test system: Streptococcus faecalis; test: MIC, test tube serial dilution, Streptococcus faecalis; type: cell-based; settings: ATCC 9790; 24 hours, 37°C
[2] = test system: Staphylococcus aureus; test: MIC, test tube serial dilution, Staphylococcus aureus; type: cell-based; settings: 24 hours, 37°C
[3] = test system: Pseudomonas aeruginosa; test: MIC, test tube serial dilution, Pseudomonas aeruginosa; type: cell-based; settings: 24 hours, 37°C
[4] = test system: Proteus morganii; test: MIC, test tube serial dilution, Proteus morganii; type: cell-based; settings: strain 932; 24 hours, 37°C
[5] = in vivo; settings: mouse, iv
[6] = test system: Klebsiella-Aerobacter; test: MIC, test tube serial dilution, Klebsiella-Aerobacter; type: cell-based; settings: 24 hours, 37°C
[7] = test system: Proteus vulgaris; test: MIC, test tube serial dilution, Proteus vulgaris; type: cell-based; settings: unit assumed
[8] = test system: Escherichia coli; test: MIC, test tube serial dilution, Escherichia coli; type: cell-based; settings: 24 hours, 37°C

CNC(=O)N1CCN(C(=O)N[C@@H](C(=O)N[C@@H]2C(=O)N3[C@@H]2SC(C)(C)[C@@H]3C(=O)O)c2ccccc2)C1=O [Example 2, Sodium D(-)-α-[(3-methylaminocarbonyl-imidazolidin-2-on-1-yl)-carbonylamino]-benzylpenicillin]
MIC [1]: 50 U/ml
MIC ([2]; strain 133): < 0.8 U/ml
MIC ([2]; strain 1756 (BRL 1 756)): 200 U/ml
MIC ([3]; strain Bonn): 50 U/ml
MIC ([3]; strain Walter): 25 U/ml
MIC [4]: 1.6 U/ml
LD50 [5]: 3000 mg/kg
MIC ([6]; strain 63): 12.5 U/ml and 12 U/ml
MIC ([6]; strain K 10): 50 U/ml
MIC [7]: 6 µg/mL
MIC ([8]; strain 183/58): 1.6 U/ml
MIC ([8]; strain A 261): 100 U/ml
MIC ([8]; strain C 165): 1.6 U/ml
